How the values were obtained:
Assay in all cases: pull-down of COI1-flag on MBP-JAZ, immunoblot
Type in all cases: binding
Conditions in all cases: 0.5 μM COR; inducer of complex (agonist)
[1] = molecular target: T1, AtCOI1-flag/AtJAZ9-MBP with ASK1 (Arabidopsis thaliana, UniProt O04197+Q8W4J8)
T1 sequence (O04197 1-592): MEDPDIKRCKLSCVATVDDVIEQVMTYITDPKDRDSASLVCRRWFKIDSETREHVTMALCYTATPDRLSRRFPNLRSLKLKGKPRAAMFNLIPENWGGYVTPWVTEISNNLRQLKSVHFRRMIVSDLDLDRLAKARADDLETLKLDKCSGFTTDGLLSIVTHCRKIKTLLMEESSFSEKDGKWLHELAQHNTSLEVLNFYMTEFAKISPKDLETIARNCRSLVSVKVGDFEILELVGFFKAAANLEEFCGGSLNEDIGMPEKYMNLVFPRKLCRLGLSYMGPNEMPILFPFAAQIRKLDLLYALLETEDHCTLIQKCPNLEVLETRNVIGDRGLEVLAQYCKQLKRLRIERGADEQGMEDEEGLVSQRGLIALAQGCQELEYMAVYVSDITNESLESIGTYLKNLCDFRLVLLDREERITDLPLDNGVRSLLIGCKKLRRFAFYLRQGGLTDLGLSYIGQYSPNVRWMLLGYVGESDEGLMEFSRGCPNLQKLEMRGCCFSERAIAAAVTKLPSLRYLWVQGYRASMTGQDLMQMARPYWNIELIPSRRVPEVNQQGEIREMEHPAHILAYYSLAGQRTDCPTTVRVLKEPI
T1 sequence (Q8W4J8 1-267): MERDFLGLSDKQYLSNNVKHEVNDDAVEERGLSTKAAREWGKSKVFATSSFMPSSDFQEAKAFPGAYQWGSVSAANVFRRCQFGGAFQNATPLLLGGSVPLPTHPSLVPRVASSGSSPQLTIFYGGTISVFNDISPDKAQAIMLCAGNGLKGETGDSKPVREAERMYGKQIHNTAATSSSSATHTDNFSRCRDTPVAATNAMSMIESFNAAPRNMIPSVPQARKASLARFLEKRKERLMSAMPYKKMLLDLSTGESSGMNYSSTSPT
T1 sequence (Q39255 1-160 partner): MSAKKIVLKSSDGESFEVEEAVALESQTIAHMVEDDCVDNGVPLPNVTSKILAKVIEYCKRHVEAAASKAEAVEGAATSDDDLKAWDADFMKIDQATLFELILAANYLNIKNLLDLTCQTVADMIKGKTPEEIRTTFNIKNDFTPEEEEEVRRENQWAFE

[2] = molecular target: T2, AtCOI1-flag/AtJAZ3-MBP with ASK1 (Arabidopsis thaliana, UniProt O04197+Q9LVI4)
T2 sequence (O04197 1-592): T1 sequence (O04197 1-592)
T2 sequence (Q9LVI4 1-352): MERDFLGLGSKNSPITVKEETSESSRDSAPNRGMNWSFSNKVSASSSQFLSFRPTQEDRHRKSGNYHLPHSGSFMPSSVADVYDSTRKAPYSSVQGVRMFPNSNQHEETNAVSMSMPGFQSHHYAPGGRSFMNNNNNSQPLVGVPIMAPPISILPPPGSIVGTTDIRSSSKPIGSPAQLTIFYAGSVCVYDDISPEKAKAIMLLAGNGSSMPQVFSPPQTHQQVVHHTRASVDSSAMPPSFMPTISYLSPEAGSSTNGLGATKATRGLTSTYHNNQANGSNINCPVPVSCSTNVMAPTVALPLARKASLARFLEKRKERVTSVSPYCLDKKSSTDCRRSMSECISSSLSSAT
T2 sequence (Q39255 1-160 partner): T1 sequence (Q39255 1-160 partner)

[3] = molecular target: T3, AtCOI1-flag/AtJAZ2-MBP with ASK1 (Arabidopsis thaliana, UniProt O04197+Q9S7M2)
T3 sequence (O04197 1-592): T1 sequence (O04197 1-592)
T3 sequence (Q9S7M2 1-249): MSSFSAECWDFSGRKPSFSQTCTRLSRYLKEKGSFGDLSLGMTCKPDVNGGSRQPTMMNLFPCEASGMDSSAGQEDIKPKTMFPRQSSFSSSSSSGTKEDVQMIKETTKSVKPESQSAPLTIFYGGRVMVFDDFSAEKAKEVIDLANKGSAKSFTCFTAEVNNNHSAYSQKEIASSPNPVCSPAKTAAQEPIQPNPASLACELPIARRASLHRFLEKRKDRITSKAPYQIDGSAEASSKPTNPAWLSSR
T3 sequence (Q39255 1-160 partner): T1 sequence (Q39255 1-160 partner)

[4] = molecular target: T4, AtCOI1-flag/AtJAZ1-MBP with ASK1 (Arabidopsis thaliana, UniProt O04197+Q9LMA8)
T4 sequence (O04197 1-592): T1 sequence (O04197 1-592)
T4 sequence (Q9LMA8 1-253): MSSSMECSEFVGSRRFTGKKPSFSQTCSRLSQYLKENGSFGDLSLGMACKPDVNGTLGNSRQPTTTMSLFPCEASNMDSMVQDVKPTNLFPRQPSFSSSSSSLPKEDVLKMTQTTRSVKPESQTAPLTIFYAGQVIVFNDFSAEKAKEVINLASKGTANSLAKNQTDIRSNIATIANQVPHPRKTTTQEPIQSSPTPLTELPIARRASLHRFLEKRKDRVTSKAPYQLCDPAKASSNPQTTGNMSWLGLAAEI
T4 sequence (Q39255 1-160 partner): T1 sequence (Q39255 1-160 partner)

`CC[C@H]1C=C(C(=O)N[C@@]2(C(=O)O)C[C@@H]2CC)[C@H]2CCC(=O)[C@H]2C1` [COR] was tested, and the “pull-down of COI1-flag on MBP-JAZ, immunoblot” value (from here on “pull-down of COI1-flag”) [1] was “COR promotes the interaction between the purified COI1 and several recombinant JAZ-MBP proteins”, the “pull-down of COI1-flag” value [2] was “COR promotes the interaction between the purified COI1 and several recombinant JAZ-MBP proteins” and the “pull-down of COI1-flag” value [3] was “COR promotes the interaction between the purified COI1 and several recombinant JAZ-MBP proteins”. The “pull-down of COI1-flag” value [4] was “COR promotes the interaction between the purified COI1 and several recombinant JAZ-MBP proteins”.

Reference: article PMC8566257 (Plant Physiology, 2021)
